Patent US11672813B2, “Bortezomib compositions” (MAIA Pharmaceuticals, Inc., priority 2021, dated 2023)

What was measured:
[1] = Visual dissolution and physical stability of bortezomib formulations with low concentrations of benzyl alcohol or DMSO in water; type: physicochemical; details: target 2.5 mg/mL; benzyl alcohol (2% v/v), DMSO (5% v/v) or combination, water added afterwards
Description: Initial formulation experiments with low concentrations of various non-aqueous solvents were conducted targeting a bortezomib concentration of 2.5 mg/mL. Attempts to solubilize bortezomib were conducted using low concentrations of benzyl alcohol (2% v/v), or dimethyl sulfoxide (5% v/v), or a combination of these solvents. […] For these formulations, the non-aqueous solvent was added to bortezomib to dissolve it, followed by addition of water to the bortezomib-solvent mixture.
Various concentrations of DMSO were explored as the non-aqueous component of the formulation (2% v/v to 5% v/v in water). Bortezomib was first completely dissolved in the batch volume of DMSO to form a concentrated “premix” solution prior to making up the batch to the target concentration (2.5 mg/mL) with water. This was done to facilitate the subsequent dissolution of bortezomib in the aqueous component.

[2] = Estimated solubility of bortezomib in select non-aqueous solvents (visual, incremental solvent addition); type: physicochemical; details: for Observation: approximately 25 mg
Description: The appearance of the solution was recorded.

With `CC(C)C[C@H](NC(=O)[C@H](Cc1ccccc1)NC(=O)c1cnccn1)B(O)O` [Bortezomib, [(1R)-3-methyl-1-[[(2S)-1-oxo-3-phenyl-2-[(pyrazinylcarbonyl)amino]propyl]amino]butyl] boronic acid] as the compound, how does the “Outcome of dissolution attempt” value [1] read?
The value was “precipitated after addition of water”.

And the Observation ([2]; N-methyl pyrrolidone (NMP))?
Its Observation is “Completely dissolved after 1 mL”.

And the “Observation: solvent needed to dissolve approximately 25 mg” value ([2]; alcohol (ethanol))?
Its value is “Approximately 5.5 mL of solvent”.

What about the Observation ([2]; benzyl alcohol) of the same compound?
Its Observation is “Completely dissolved after 0.5 mL”.

What about the Observation ([2]; dimethyl sulfoxide (DMSO)) of the same compound?
The Observation was “Completely dissolved after 0.5 mL”.

And the Observation ([2]; glycerol, up to 10 mL)?
Its Observation is “No significant dissolution observed up”.

And the Observation ([2]; polyethylene glycol 400, up to 10 mL)?
The Observation was “No significant dissolution observed up”.

And the “Observation: solvent needed to dissolve approximately 25 mg” value ([2]; propylene glycol)?
Its value is “Approximately 7 mL of solvent needed”.
